ChEMBL document CHEMBL3885861, “Open TG-GATES”

Organism: Rattus norvegicus
Test: Open TG-GATES - Regimen: Single
Format: toxicity, organism-based, Sprague-Dawley
Design: regimen Single, gender Male, age 6 weeks
Conditions: in vivo, ip, route intraperitoneal injection; for APTT / Bas / Eos / Fbg / Hb / Ht / Lym / MCH / MCHC / MCV / Mono / Neu / PT / Plat / RBC / Ret / WBC: tissue Blood; for KIDNEY_L / KIDNEY_R / KIDNEY_TOTAL: tissue Kidney; for LIVER: tissue Liver; for A/G / ALP / ALT / AST / BUN / CRE / Ca / Cl / DBIL / GLC / IP / K / LDH / Na / PL / RALB / TBIL / TC / TG / TP / gamma-GTP: tissue Plasma
[1] = 120 mg/kg, 3 h, dose level Middle
[2] = 120 mg/kg, 6 h, dose level Middle
[3] = 120 mg/kg, 9 h, dose level Middle
[4] = 120 mg/kg, 24 h, dose level Middle
[5] = 400 mg/kg, 3 h, dose level High
[6] = 400 mg/kg, 6 h, dose level High
[7] = 400 mg/kg, 9 h, dose level High
[8] = 400 mg/kg, 24 h, dose level High

## CC(C)=CC(=O)C=C(C)C [PHORONE]
[1]
  TERMINAL_BW: 223.2 g
  APTT: 16.6 s
  Bas: 0%
  Eos: 0.8%
  Fbg: 219.8 mg/dL
  Hb: 13.8 g/dL
  Ht: 41%
  Lym: 74.4%
  MCH: 21.7 pg
  MCHC: 33.5%
  MCV: 64.6 fL
  Mono: 8.4%
  Neu: 16.2%
  PT: 12.2 s
  Plat: 124.2 x10_4/uL
  RBC: 635.4 x10_4/ul
  Ret: 8.8%
  WBC: 65.2 x10_2/uL
  KIDNEY_L: 1 g
  KIDNEY_R: 1 g
  KIDNEY_TOTAL: 2 g
  LIVER: 10.2 g
  A/G: 2.2
  ALP: 897.8 IU/L
  ALT: 34.6 IU/L
  AST: 76.2 IU/L
  BUN: 15.2 mg/dL
  CRE: 0.6 mg/dL
  Ca: 11.2 mg/dL
  Cl: 103 meq/L
  DBIL: 0.038 mg/dL
  GLC: 213.4 mg/dL
  IP: 10.1 mg/dL
  K: 5.1 meq/L
  LDH: 79.8 IU/L
  Na: 137.2 meq/L
  PL: 132.6 mg/dL
  RALB: 3.6 g/dL
  TBIL: 0.6 mg/dL
  TC: 79 mg/dL
  TG: 50.8 mg/dL
  TP: 5.3 g/dL
  gamma-GTP: 1.2 IU/L
[2]
  TERMINAL_BW: 221.7 g
  APTT: 17.1 s
  Bas: 0%
  Eos: 1%
  Fbg: 220.6 mg/dL
  Hb: 13.7 g/dL
  Ht: 41.3%
  Lym: 75.6%
  MCH: 21.7 pg
  MCHC: 33.1%
  MCV: 65.4 fL
  Mono: 4.4%
  Neu: 19.2%
  PT: 12.2 s
  Plat: 114 x10_4/uL
  RBC: 633.2 x10_4/ul
  Ret: 8.5%
  WBC: 102.3 x10_2/uL
  KIDNEY_L: 1 g
  KIDNEY_R: 1 g
  KIDNEY_TOTAL: 2 g
  LIVER: 9.9 g
  A/G: 1.9
  ALP: 687.6 IU/L
  ALT: 34.4 IU/L
  AST: 71 IU/L
  BUN: 15 mg/dL
  CRE: 0.4 mg/dL
  Ca: 10.7 mg/dL
  Cl: 104.2 meq/L
  DBIL: 0.032 mg/dL
  GLC: 194.4 mg/dL
  IP: 9.5 mg/dL
  K: 4.7 meq/L
  LDH: 81.6 IU/L
  Na: 138 meq/L
  PL: 130.6 mg/dL
  RALB: 3.6 g/dL
  TBIL: 0.5 mg/dL
  TC: 80 mg/dL
  TG: 29 mg/dL
  TP: 5.5 g/dL
  gamma-GTP: 2 IU/L
[3]
  TERMINAL_BW: 216.1 g
  APTT: 16.6 s
  Bas: 0%
  Eos: 0.8%
  Fbg: 229.2 mg/dL
  Hb: 13.4 g/dL
  Ht: 40.4%
  Lym: 72.6%
  MCH: 21.7 pg
  MCHC: 33.1%
  MCV: 65.5 fL
  Mono: 6.6%
  Neu: 20%
  PT: 12.1 s
  Plat: 113.6 x10_4/uL
  RBC: 617.2 x10_4/ul
  Ret: 8.9%
  WBC: 90 x10_2/uL
  KIDNEY_L: 1 g
  KIDNEY_R: 1 g
  KIDNEY_TOTAL: 2 g
  LIVER: 8.9 g
  A/G: 2.2
  ALP: 717.4 IU/L
  ALT: 31 IU/L
  AST: 66.8 IU/L
  BUN: 11.2 mg/dL
  CRE: 0.5 mg/dL
  Ca: 10.7 mg/dL
  Cl: 106.2 meq/L
  DBIL: 0.058 mg/dL
  GLC: 202.6 mg/dL
  IP: 10 mg/dL
  K: 4.7 meq/L
  LDH: 89.8 IU/L
  Na: 138.4 meq/L
  PL: 128 mg/dL
  RALB: 3.7 g/dL
  TBIL: 0.4 mg/dL
  TC: 74.2 mg/dL
  TG: 43.8 mg/dL
  TP: 5.4 g/dL
  gamma-GTP: 1.6 IU/L
[4]
  TERMINAL_BW: 229.2 g
  APTT: 16.9 s
  Bas: 0%
  Eos: 0.8%
  Fbg: 244 mg/dL
  Hb: 12.9 g/dL
  Ht: 39.2%
  Lym: 75.4%
  MCH: 21.3 pg
  MCHC: 32.9%
  MCV: 64.7 fL
  Mono: 6.8%
  Neu: 17.2%
  PT: 11.7 s
  Plat: 121.5 x10_4/uL
  RBC: 606.2 x10_4/ul
  Ret: 8.1%
  WBC: 94.9 x10_2/uL
  KIDNEY_L: 1.1 g
  KIDNEY_R: 1.1 g
  KIDNEY_TOTAL: 2.2 g
  LIVER: 11.9 g
  A/G: 2.1
  ALP: 860.6 IU/L
  ALT: 34.4 IU/L
  AST: 58.2 IU/L
  BUN: 15.8 mg/dL
  CRE: 0.5 mg/dL
  Ca: 10.9 mg/dL
  Cl: 103.6 meq/L
  DBIL: 0.03 mg/dL
  GLC: 194.8 mg/dL
  IP: 7.7 mg/dL
  K: 4.6 meq/L
  LDH: 176.4 IU/L
  Na: 139.2 meq/L
  PL: 148 mg/dL
  RALB: 3.7 g/dL
  TBIL: 0.4 mg/dL
  TC: 77.2 mg/dL
  TG: 106.2 mg/dL
  TP: 5.6 g/dL
  gamma-GTP: 0.6 IU/L
[5]
  TERMINAL_BW: 224 g
  APTT: 18 s
  Bas: 0%
  Eos: 0.8%
  Fbg: 206.6 mg/dL
  Hb: 13.7 g/dL
  Ht: 40.8%
  Lym: 81%
  MCH: 21.9 pg
  MCHC: 33.6%
  MCV: 65.1 fL
  Mono: 5%
  Neu: 13.6%
  PT: 12.9 s
  Plat: 130 x10_4/uL
  RBC: 626.2 x10_4/ul
  Ret: 9.1%
  WBC: 81.1 x10_2/uL
  KIDNEY_L: 0.9 g
  KIDNEY_R: 1 g
  KIDNEY_TOTAL: 1.9 g
  LIVER: 9.4 g
  A/G: 2.4
  ALP: 931 IU/L
  ALT: 51 IU/L
  AST: 106.6 IU/L
  BUN: 23.4 mg/dL
  CRE: 1.1 mg/dL
  Ca: 11 mg/dL
  Cl: 99.4 meq/L
  DBIL: 0.046 mg/dL
  GLC: 292.8 mg/dL
  IP: 9.8 mg/dL
  K: 4.6 meq/L
  LDH: 282.6 IU/L
  Na: 136 meq/L
  PL: 110.6 mg/dL
  RALB: 3.8 g/dL
  TBIL: 0.9 mg/dL
  TC: 67 mg/dL
  TG: 18 mg/dL
  TP: 5.4 g/dL
  gamma-GTP: 1.8 IU/L
[6]
  TERMINAL_BW: 215 g
  APTT: 17.1 s
  Bas: 0%
  Eos: 1.2%
  Fbg: 208.2 mg/dL
  Hb: 13.4 g/dL
  Ht: 40.7%
  Lym: 61%
  MCH: 21.4 pg
  MCHC: 33%
  MCV: 64.8 fL
  Mono: 8%
  Neu: 30.2%
  PT: 13.9 s
  Plat: 123.8 x10_4/uL
  RBC: 627.6 x10_4/ul
  Ret: 9.2%
  WBC: 84.8 x10_2/uL
  KIDNEY_L: 0.9 g
  KIDNEY_R: 1 g
  KIDNEY_TOTAL: 1.9 g
  LIVER: 8.6 g
  A/G: 2.2
  ALP: 925 IU/L
  ALT: 73.2 IU/L
  AST: 174 IU/L
  BUN: 23 mg/dL
  CRE: 0.7 mg/dL
  Ca: 10.5 mg/dL
  Cl: 106.4 meq/L
  DBIL: 0.048 mg/dL
  GLC: 168 mg/dL
  IP: 11.2 mg/dL
  K: 4.4 meq/L
  LDH: 277.8 IU/L
  Na: 138.2 meq/L
  PL: 110.4 mg/dL
  RALB: 3.7 g/dL
  TBIL: 1 mg/dL
  TC: 67.2 mg/dL
  TG: 24.4 mg/dL
  TP: 5.5 g/dL
  gamma-GTP: 1.4 IU/L
[7]
  TERMINAL_BW: 210.1 g
  APTT: 17.1 s
  Bas: 0%
  Eos: 1%
  Fbg: 209.8 mg/dL
  Hb: 13.4 g/dL
  Ht: 40.7%
  Lym: 56.4%
  MCH: 21.6 pg
  MCHC: 33%
  MCV: 65.4 fL
  Mono: 8%
  Neu: 35%
  PT: 13.9 s
  Plat: 123.6 x10_4/uL
  RBC: 622.2 x10_4/ul
  Ret: 10.3%
  WBC: 125.6 x10_2/uL
  KIDNEY_L: 1 g
  KIDNEY_R: 1 g
  KIDNEY_TOTAL: 2 g
  LIVER: 8.3 g
  A/G: 2.1
  ALP: 915.4 IU/L
  ALT: 60.2 IU/L
  AST: 166.6 IU/L
  BUN: 23.8 mg/dL
  CRE: 0.6 mg/dL
  Ca: 10.9 mg/dL
  Cl: 104.6 meq/L
  DBIL: 0.06 mg/dL
  GLC: 155.2 mg/dL
  IP: 11.6 mg/dL
  K: 4.1 meq/L
  LDH: 257 IU/L
  Na: 138.2 meq/L
  PL: 107.4 mg/dL
  RALB: 3.9 g/dL
  TBIL: 0.8 mg/dL
  TC: 71 mg/dL
  TG: 38.6 mg/dL
  TP: 5.8 g/dL
  gamma-GTP: 1.2 IU/L
[8]
  TERMINAL_BW: 201.7 g
  APTT: 24.9 s
  Bas: 0%
  Eos: 0.4%
  Fbg: 190.4 mg/dL
  Hb: 14.1 g/dL
  Ht: 42.5%
  Lym: 77%
  MCH: 21.6 pg
  MCHC: 33.1%
  MCV: 65.1 fL
  Mono: 3.2%
  Neu: 19.4%
  PT: 20 s
  Plat: 121.3 x10_4/uL
  RBC: 652.2 x10_4/ul
  Ret: 7.6%
  WBC: 140.6 x10_2/uL
  KIDNEY_L: 1.1 g
  KIDNEY_R: 1.1 g
  KIDNEY_TOTAL: 2.1 g
  LIVER: 9.4 g
  A/G: 2.2
  ALP: 828.6 IU/L
  ALT: 296.8 IU/L
  AST: 1408.4 IU/L
  BUN: 19.2 mg/dL
  CRE: 0.5 mg/dL
  Ca: 10.2 mg/dL
  Cl: 110.6 meq/L
  DBIL: 0.2 mg/dL
  GLC: 167.2 mg/dL
  IP: 8.4 mg/dL
  K: 3.9 meq/L
  LDH: 4785 IU/L
  Na: 139.2 meq/L
  PL: 97.6 mg/dL
  RALB: 3.7 g/dL
  TBIL: 0.6 mg/dL
  TC: 56.8 mg/dL
  TG: 23.2 mg/dL
  TP: 5.4 g/dL
  gamma-GTP: 0.8 IU/L
